From patent EP0452101B1, “Spiro bridged and unbridged heterocyclic compounds” (ISRAEL INSTITUTE FOR BIOLOGICAL RESEARCH, priority 1990, dated 1991)
Read-outs that look alike come from different tables or passages of the source.

Experiments:
scopolamine-treated rats = test: Passive avoidance (PA) in scopolamine-treated rats; format: in vivo, Sprague-Dawley rats
Method: Naive male Sprague-Dawley rats, three months old (obtained from Charles River Breeding, U.K.), were used (weighing 200-300 g.). The passive avoidance (PA) test is according to Fisher et al, Neurosci. Lett. 102: 325 (1989), except that in these rats amnesia was induced by scopolamine.
Eight groups of 17-20 naive rats were used. Each group was divided into two subgroups of 7-10 rats each: subgroup 1 was injected with scopolamine HBr (0.5 mg./kg. in saline, s.c., 15 min. before the shock) and subgroup 2 was injected with saline (1 ml./kg., s.c., 15 min. before the shock). Seven of the groups were treated within one minute after the shock with one of the following doses of the tested compound: 0.1, 0.5, 1, 3, 5, 8, 10 mg./kg. (in saline, i.p.) and one group received saline (1 ml./kg., i.p.).
Eight groups of 18-20 naive rats each were used. Each group was divided into two subgroups of 9-10 rats each: subgroup 1 was injected with scopolamine HBr (0.5 mg./kg. in saline, s.c., 15 min. before the shock) and subgroup 2 was injected with saline (1 ml./kg., s.c., 15 min. before the shock). Seven of the groups were treated, within one minute after the shock, with one of the following doses of AF125(N): 0.1, 0.5, 1, 3, 5, 8 or 10 mg./kg. (in saline, i.p.) and one group received saline (1 ml./kg., i.p.).

[1] = system: AF64A-injected mature rats; test: 8-arm radial maze (RAM) in AF64A-treated rats, Part A; format: in vivo; conditions: AF125 0.5 mg./kg. i.p.
Method: This animal model mimics the cholinergic hypofunction and cognitive dysfunction in SDAT (Fisher and Hanin, loc cit; Fisher et al, Neurosci. Lett. 102: 325-331, 1989); the method described in the latter publication was used here.
Forty eight mature male (11-12 months) rats which were used in this study. They were injected icv with AF64A (3 nmole/2 µl./side) 8 months earlier, at the age of three months. One week before the behavioral testing, rats were transferred to individual cages and were food restricted until reaching 90% of their free feeding weight (the rats had free access to water). The room was illuminated 12 hrs a day (6:00 to 18:00) and behavioral testing sessions were carried out during the mornings. After reaching 90% of free feeding weight, rats received about 4 food pellets per day (Altromin, 15 g.) in order to further reduce the rats' weights. Two days before behavioral testing the rats were fed with precision pellets (Bioserv Inc.) which were later used for reinforcement in the maze.
Behavioral tests were conducted in an elevated (70cm) 8-arms radial maze, made of PVC. […]
Due to the size of the batch (48 rats) the experiment was conducted in two phases. […] The correct choices, number of errors and total time scores were analyzed by a 2-way ANOVA (2x2) (Injection-AF64A/saline and Treatment-AF125 0.5 mg./kg./saline).

muscarinic receptors = test: (-)3H-QNB binding to rat cerebral cortex homogenates with and without Cu++ treatment
[2] = system: CA1 neurons in the hippocampal slice; test: Electrophysiological evaluation in rat hippocampal slices
Method: In general terms the effects of microdrops of AF150, ACh and PZ were applied to rat hippocampal cells recorded intracellularly. The exact concentrations of the drug at the receptor sites are not known, using this method. However, this method has an advantage over the perfusion method, in that it gives a more correct picture from the electrophysiological point of view (Segal, loc cit).
Intracellular responses to AF150 of CA1 neurons in the hippocampal slice were recorded, using the method of Segal. Small hyperpolarizing current pulses (current traces not shown) were alternated with stimulation of the Schaffer-commissural afferents producing postsynaptic potentials.

[3] = post-shock AF125 0.1 mg/kg i.p., pre-shock Saline
[4] = post-shock AF125 0.1 mg/kg i.p., pre-shock Scopolamine
[5] = post-shock AF125 0.5 mg/kg i.p., pre-shock Saline
[6] = post-shock AF125 0.5 mg/kg i.p., pre-shock Scopolamine
[7] = post-shock AF125 1.0 mg/kg i.p., pre-shock Saline
[8] = post-shock AF125 1.0 mg/kg i.p., pre-shock Scopolamine
[9] = post-shock AF125 3.0 mg/kg i.p., pre-shock Saline
[10] = post-shock AF125 3.0 mg/kg i.p., pre-shock Scopolamine
[11] = post-shock AF125 5.0 mg/kg i.p., pre-shock Saline
[12] = post-shock AF125 5.0 mg/kg i.p., pre-shock Scopolamine
[13] = post-shock AF125 8.0 mg/kg i.p., pre-shock Saline
[14] = post-shock AF125 8.0 mg/kg i.p., pre-shock Scopolamine
[15] = post-shock AF125 10.0 mg/kg i.p., pre-shock Saline
[16] = post-shock AF125 10.0 mg/kg i.p., pre-shock Scopolamine

For CC1=NCC2(CN3CCC2CC3)O1 (racemic) [AF125, 2-Methyl-spiro(1,3 oxazoline-5,3')quinuclidine], the side effects (scopolamine-treated rats; 3 mg./kg. i.p., pre-shock saline treated rats) was “slight diarrhea”, the side effects (scopolamine-treated rats; 5 mg./kg. i.p., pre-shock saline treated rats) was “stronger diarrhea” and the side effects (scopolamine-treated rats; 8 and 10 mg./kg. i.p., pre-shock saline treated rats) was “severe diarrhea with lacrimation”. For the same compound, the “Initial latency, Mean” value (scopolamine-treated rats; [3]) was 49.5, the “Retention latency, Mean” value (scopolamine-treated rats; [3]) was 572.8 and the “Initial latency, Mean” value (scopolamine-treated rats; [4]) was 33.6. The “Retention latency, Mean” value (scopolamine-treated rats; [4]) was 128.8, the “Initial latency, Mean” value (scopolamine-treated rats; [5]) was 42.0 and the “Retention latency, Mean” value (scopolamine-treated rats; [5]) was 600.0. The “Initial latency, Mean” value (scopolamine-treated rats; [6]) was 47.4, the “Retention latency, Mean” value (scopolamine-treated rats; [6]) was 222.7 and the “Initial latency, Mean” value (scopolamine-treated rats; [7]) was 36.0. The “Retention latency, Mean” value (scopolamine-treated rats; [7]) was 555.8, the “Initial latency, Mean” value (scopolamine-treated rats; [8]) was 23.3 and the “Retention latency, Mean” value (scopolamine-treated rats; [8]) was 261.2. For the same compound, the “Initial latency, Mean” value (scopolamine-treated rats; [9]) was 51.9, the “Retention latency, Mean” value (scopolamine-treated rats; [9]) was 530.4 and the “Initial latency, Mean” value (scopolamine-treated rats; [10]) was 47.3. The “Retention latency, Mean” value (scopolamine-treated rats; [10]) was 296.0, the “Initial latency, Mean” value (scopolamine-treated rats; [11]) was 34.7 and the “Retention latency, Mean” value (scopolamine-treated rats; [11]) was 426.7. The “Initial latency, Mean” value (scopolamine-treated rats; [12]) was 51.3, the “Retention latency, Mean” value (scopolamine-treated rats; [12]) was 227.3 and the “Initial latency, Mean” value (scopolamine-treated rats; [13]) was 41.2. The “Retention latency, Mean” value (scopolamine-treated rats; [13]) was 594.1, the “Initial latency, Mean” value (scopolamine-treated rats; [14]) was 53.9 and the “Retention latency, Mean” value (scopolamine-treated rats; [14]) was 294.9. The “Initial latency, Mean” value (scopolamine-treated rats; [15]) was 46.3, the “Retention latency, Mean” value (scopolamine-treated rats; [15]) was 498.3 and the “Initial latency, Mean” value (scopolamine-treated rats; [16]) was 45.9. The “Retention latency, Mean” value (scopolamine-treated rats; [16]) was 288.3, the side effects (scopolamine-treated rats; pre-shock scopolamine treated rats) was “did not exhibit any side effects” and the Side-effects [1] was “Only two saline-injected rats treated with AF125 had diarrhoea”. The “correct choices out of the first eight entries” value ([1]; AF64A-injected rats) was 6.53±0.36.

For CC1=NCC2(CCN(C)CC2)O1 [AF150, 2-Methyl-spiro(1,3-oxazoline-5,4')-1'-methylpiperidine], the “%H (% of high affinity state)” value (muscarinic receptors; with Cu++ pretreatment (100 µM, 30 minutes)) was 37%, the “%H (% of high affinity state)” value (muscarinic receptors; with Cu++ pretreatment (100 µM, 30 minutes), listed as 5) was 37±2% and the Ki (muscarinic receptors; with Cu++ pretreatment (100 µM, 30 minutes), read-out: KH) was 0.52 ± 0.003 µM. The Ki (muscarinic receptors; with Cu++ pretreatment (100 µM, 30 minutes), read-out: KL) was 18 ± 2 µM, the “%H (% of high affinity state)” value (muscarinic receptors; without pretreatment) was 14% and the “%H (% of high affinity state)” value (muscarinic receptors; without pretreatment, listed as 5) was 14±1%. For the same compound, the Ki (muscarinic receptors; without pretreatment, read-out: KH) was 0.32 µM, the Ki (muscarinic receptors; without pretreatment, read-out: KL) was 33.5 µM and the “slow AHP (Ca++-dependent K+ conductance)” value ([2]; applied topically by microdrops) was “blocks the slow AHP”. The depolarization ([2]; applied topically by microdrops (AF150: 100 µM)) was “potent depolarizing response”, the “input resistance at rest” value ([2]; microdrops (100 µM)) was “real increase in input resistance at rest” and the “postsynaptic potentials (PSPs)” value ([2]; microdrops (100 µM)) was “small reduction in postsynaptic potentials”.
